Experiments:
ERBB4 = ERBB4 (Homo sapiens, UniProt Q15303); assay: Western blot of ERBB4 phosphorylation in transfected PC12 cells; type: cell-based; settings: PC12 cells transfected with ERBB4-NTEV-tevS-GV, 10 ng/ml EGFld, 10 μM, 1 h
Experimental: After 24 h of expression, cells were treated as indicated and lysed in a 1% Triton‐X lysis buffer (50 mM Tris [pH 7.5], 150 mM NaCl, 1% Triton X‐100, 1 mM EGTA) supplemented with 10 mM NaF, 1 mM […], 1 mM ZnCl2 4.5 mM Na4P20_7, as phosphatase inhibitors, and the complete protease inhibitor cocktail (Roche).
Each blot was replicated two times.

Nrg1-tg and wt mice = assay: Tail suspension test; type: in vivo, mouse; settings: 50 mg/kg s.c. daily
Experimental: For behavioral testing, age‐matched male mice (8–16 weeks) on C57Bl/6 background that constitutively overexpress the 2xHA‐tagged Nrg1 type III β1a isoform (Nrg1‐tg) under the control of the mouse Thy1.2 promoter (Velanac et al, 2012) and their wild‐type (wt) littermates as controls were used. Animals were group‐housed in the same ventilated sound‐attenuated rooms under a 12‐h light/12‐h dark schedule (lights on at 8:00 am) at an ambient temperature of 21°C with food and water available ad libitum. One week prior to experiments, mice were separated into single cages and habituated to the experimental rooms. To minimize the influence of the circadian rhythm on drug actions, the treatment groups were analyzed at balanced time points during the light phase. […] All animal experiments were conducted in accordance with NIH principles of laboratory animal care and were approved by the Government of Lower Saxony, Germany, in accordance with the German Animal Protection Law.
Treatment was continued throughout the behavioral analysis period. To avoid injection‐induced stress prior to behavioral testing, mice were injected in the afternoon, after the entire cohort has completed the behavioral paradigm.

NRG1-ERBB4 signaling = assay: Nrg1-ERBB4-PIK3R1 split TEV co-culture compound screen of the NIH Clinical Collection; type: cell-based, human; settings: compounds at 10 μM, 24 h; PC12 split TEV assay cells co-cultured with Nrg1-expressing PC12 cells; analysed with cellHTS2
GAL4/UAS system = assay: GAL4/UAS control assay; type: cell-based; settings: GV and 10×UAS-Fluc plasmids in PC12 cells
Source text: All counts (407 compounds and 96 controls) from the Nrg1‐ERBB4‐PIK3R1 split TEV compound screen were plotted against the z‐score using Mondrian, with pathway activators displaying high values and inhibitors low values. For the secondary analysis, we selected all candidates that were at least three standard deviations away from the mean. […] For the GAL4/UAS assay, GAL4‐VP16 (GV) and 10×UAS firefly luciferase (10×UAS‐Fluc) plasmids were transfected into PC12 cells. For TEV protease activity assays, a transmembrane‐localized TEV protease (TM‐TEV) was expressed in PC12 cells with a transmembrane‐localized and TEV‐cleavable GV (TM‐tevS‐GV) and the 10×UAS‐Fluc reporter. […] EGFld was applied as Nrg1 stimulus. In both control assays, the assay activity (firefly luciferase, black lines) was similar to the toxicity levels (gray lines). Data are shown as mean, a nd error bars represent SEM, n = 6. The insets depict IC50 values in μM.

Chain of ERBB4 (Q15303 26-1308): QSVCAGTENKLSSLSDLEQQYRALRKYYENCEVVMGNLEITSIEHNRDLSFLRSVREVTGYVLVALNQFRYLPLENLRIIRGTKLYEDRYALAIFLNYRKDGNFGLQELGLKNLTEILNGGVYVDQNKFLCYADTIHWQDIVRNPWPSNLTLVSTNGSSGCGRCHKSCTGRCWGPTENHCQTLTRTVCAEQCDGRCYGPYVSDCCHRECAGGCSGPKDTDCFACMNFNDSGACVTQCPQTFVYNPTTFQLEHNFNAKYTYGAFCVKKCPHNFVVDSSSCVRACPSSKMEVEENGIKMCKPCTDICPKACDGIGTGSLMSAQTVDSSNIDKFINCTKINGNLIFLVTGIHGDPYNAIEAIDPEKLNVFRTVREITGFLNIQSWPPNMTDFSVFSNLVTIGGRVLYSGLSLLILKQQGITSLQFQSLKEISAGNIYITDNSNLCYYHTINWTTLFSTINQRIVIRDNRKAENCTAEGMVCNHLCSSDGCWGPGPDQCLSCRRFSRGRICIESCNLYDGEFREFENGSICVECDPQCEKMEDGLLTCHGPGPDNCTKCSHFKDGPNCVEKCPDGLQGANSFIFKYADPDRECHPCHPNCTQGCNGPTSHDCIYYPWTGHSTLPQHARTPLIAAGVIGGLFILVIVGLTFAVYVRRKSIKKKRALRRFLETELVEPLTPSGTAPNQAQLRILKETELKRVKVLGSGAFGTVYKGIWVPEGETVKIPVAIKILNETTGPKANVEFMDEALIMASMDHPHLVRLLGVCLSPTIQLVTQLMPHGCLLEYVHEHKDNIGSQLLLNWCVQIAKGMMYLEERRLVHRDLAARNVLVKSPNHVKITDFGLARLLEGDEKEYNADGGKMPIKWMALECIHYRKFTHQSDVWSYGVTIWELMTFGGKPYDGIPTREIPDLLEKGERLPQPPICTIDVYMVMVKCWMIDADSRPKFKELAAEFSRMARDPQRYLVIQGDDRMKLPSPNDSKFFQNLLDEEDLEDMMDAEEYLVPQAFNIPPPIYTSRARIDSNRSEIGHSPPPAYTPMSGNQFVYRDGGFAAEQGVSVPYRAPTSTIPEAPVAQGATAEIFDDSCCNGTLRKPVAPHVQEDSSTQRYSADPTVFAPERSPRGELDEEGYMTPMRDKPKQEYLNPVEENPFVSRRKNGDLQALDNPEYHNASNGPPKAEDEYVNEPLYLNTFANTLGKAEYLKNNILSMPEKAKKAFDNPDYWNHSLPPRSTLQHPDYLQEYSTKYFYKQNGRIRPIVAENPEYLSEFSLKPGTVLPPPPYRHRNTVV

## CC(=O)S[C@@H]1CC2=CC(=O)CC[C@]2(C)[C@H]2CC[C@@]3(C)[C@@H](CC[C@@]34CCC(=O)O4)[C@H]12 [Spironolactone]
ERBB4
  ERBB4 phosphorylation levels at Tyr1056: reduces but not abolishes the phosphorylation levels
Nrg1-tg and wt mice
  time active in the tail suspension test (genotype effect): independent of treatment
NRG1-ERBB4 signaling
  Z-SCORE: 9.25
GAL4/UAS system
  effect on activity of the GAL4/UAS system: does not affect activities of control assays

— paper PMC5653977 (EMBO Molecular Medicine, 2017)
